Measured values from patent US5514648A, “Fungicidally active compounds” (priority 1990, dated 1996).
Where a SMILES comes first, the peptide text is derived from it. [ ]: non-standard residue; d: D form. NMeI = CC[C@H](C)[C@H](NC)C(=O)O; NMeD = CN[C@@H](CC(=O)O)C(=O)O; NMeV = CN[C@H](C(=O)O)C(C)C; Pip = O=C(O)[C@@H]1CCCCN1; dLac = C[C@@H](O)C(=O)O

Columns and labels:
[1] = Toxicology IC50, Chemiluminescent; settings: estimated
Procedure: Based on these tests the IC50 values for BK 202 were estimated as: Chemiluminescent >10 μg/ml

[2] = test system: V. inequalis; assay: Fungicidal activity, mycelial growth on potato dextrose agar; type: cell-based, Venturia inequalis; settings: in as low concentrations as 0.0016 μg/ml, 3 to 6 days
Procedure: (§1) Experiments were carried out to determine the potency of the compound of formula IV towards various fungi. The active ingredient was dissolved in 60% ethanol and added to cooled potato dextrose agar to give final concentrations of 25, 5, 1, 0.2, 0.04 and 0.0016 μg a.i. per ml agar, respectively. Control dishes contained no active ingredient.
(§2) 10 ml Agar was poured into 9 cm petri dishes and each concentration was inoculated with actively growing mycelium of the fungal isolates tested for. The dishes were incubated at the optimum temperature for growth of the isolates for 3 to 6 days after which time the growth was measured in mm and compared to the controls.
(§3) The test isolates covered a broad range of fungi within the Oomycetes, the Ascomycetes, the Basidiornycetes, the Deuterornycetes, and the Zygomycetes.

[3] = test system: M. fructigena; assay: as above; type: cell-based, Monilinia fructigena; settings: in as low concentrations as 0.0016 μg/ml, 3 to 6 days
Procedure: as §1, §2, §3

[4] = test system: A. fumigatus; assay: as above; type: cell-based, Aspergillus fumigatus; settings: in as low concentrations as 0.0016 μg/ml, 3 to 6 days
Procedure: as §1, §2, §3

[5] = test system: P. digitatum; assay: as above; type: cell-based, Penicillium digitatum; settings: in as low concentrations as 0.0016 μg/ml, 3 to 6 days
Procedure: as §1, §2, §3

[6] = test system: B. cinerea; assay: as above; type: cell-based, Botrytis cinerea; settings: in as low concentrations as 0.0016 μg/ml, 3 to 6 days
Procedure: as §1, §2, §3

[7] = test system: A. pisi; assay: as above; type: cell-based, Ascochyta pisi; settings: in as low concentrations as 0.0016 μg/ml, 3 to 6 days
Procedure: as §1, §2, §3

[8] = test system: P. teres; assay: as above; type: cell-based, Pyrenophora teres; settings: in as low concentrations as 0.0016 μg/ml, 3 to 6 days
Procedure: as §1, §2, §3

[9] = test system: P. sorghina; assay: as above; type: cell-based, Phoma sorghina; settings: 25 to 0.0016 μg a.i. per ml agar, 3 to 6 days
Procedure: as §1, §2, §3

[10] = test system: F. lycopersici; assay: as above; type: cell-based, Fusarium lycopersici; settings: 25 to 0.0016 μg a.i. per ml agar, 3 to 6 days
Procedure: as §1, §2, §3

[11] = test system: Zygomycetous species; assay: as above; type: cell-based, Zygomycetes; settings: 25 to 0.0016 μg a.i. per ml agar
Procedure: as §1, §2, §3

[12] = test system: Deuterornycetous species; assay: as above; type: cell-based, Deuterornycetes; settings: 25 to 0.0016 μg a.i. per ml agar
Procedure: as §1, §2, §3

[13] = test system: plants; assay: Phytotoxic activity on plants; type: in vivo; settings: at the concentrations used in Examples 1 to 7
[14] = test system: Botrytis cinerea; assay: Activity against Botrytis cinerea on apples (Golden Delicious); type: in vivo; settings: suspension 9.8 μg active ingredient per ml; inoculated the following day; one week, 18°-20° C.; untreated fruits 100% infected
Procedure: Artificially injured apples were sprayed with a suspension containing 9.8 μg active ingredient per ml.On the following day the treated fruits were inoculated with a spore suspension of the fungus containing 1×10^5 /ml, and incubated for a week at high air humidity and 18°-20° C. At the evaluation the infected places of injury were counted and from that the fungicidal effect of the test substance evaluated. […] The untreated fruits were 100% infected with Botrytis cinerea.

[15] = test system: Botrytis cinerea; assay: Field trial, Botrytis cinerea on grapes (Ugni Blanc); type: in vivo; settings: 100, 300, and 900 g a.i./ha, three sprayings
Excerpt: Field trial performed in Bordeaux, France, in accordance with CEB Method No. 37. A plot consisted of 15 plants in one row and six replicates were used. The active compound was used in a test formulation containing approximately 10% active ingredient (a.i.). Three concentrations of active compound were applied: 100, 300, and 900 g a.i./ha. The water volume was 300 l/ha. The grapes were sprayed at the following growth stages: T1, end of formation of bunches of grapes; T2, beginning of ripening of grapes; and T3, 3 to 4 weeks before harvest. The commercial fungicides […]® and BASULTRA® were used as standard references. The assessment was performed by estimating the intensity and frequency of the Botrytis cinerea attack after the appearance of the disease.

[16] = test system: Monilinia fructigena; assay: Activity against Monilinia fructigena on apples (Golden Delicious); type: in vivo; settings: for number of infected wounds (maximum 20): 5 days, 0 mg ai/l gives 20
Procedure: Apples were surface sterilized, each punctured 5 times with a nail 2.1 mm in diameter, dipped in suspensions containing 0, 0.5, 5, 50, and 500 mg a.i. per 1. The active ingredient was (i) BK 202, (ii) benomyI(BENLATE®), (iii) iprodione(ROVRAL®). Four apples were punctured and treated with each concentration of the three pesticides giving a total of 20 wounds per concentration. The fruits were placed in plastic containers in rows with the wounds facing upwards. After 24 hours, the wounded areas were sprayed with a suspension of Monilinia fructigena containing 1×10^5 spores per ml. The containers were then covered with polyethylene bags and kept at room temperature (approximately22° C.).
After 5 days the effects were assessed by counting the number of infected wounds (maximum 20 infected wounds per treatment).

Compound: CC[C@H](C)[C@H]1C(=O)NCC(=O)N(C)[C@@H](C(C)C)C(=O)N[C@@H](Cc2ccc(OC)cc2)C(=O)O[C@H](C)C(=O)N2CCCC[C@H]2C(=O)N(C)[C@@H](C(C)C)C(=O)N[C@@H](C(C)C)C(=O)N(C)[C@@H](CC(=O)O)C(=O)N(C)[C@@H](C(C)C)C(=O)N1C [BK 202, cyclo- Pec-MeVal-Val-MeAsp-MeVal-MeIle-Gly-MeVal-TyrOMe-D-Lact!] (cyclo(G[NMeV]Y(Me)[dLac][Pip][NMeV]V[NMeD][NMeV][NMeI]))
- IC50, Chemiluminescent [1]: > 10 µg/mL
- inhibition of growth [2]: very strong
- inhibition of growth [3]: very strong
- inhibition of growth [4]: very strong
- inhibition of growth [5]: very strong
- inhibition of growth [6]: very strong
- inhibition of growth [7]: very strong
- inhibition of growth [8]: very strong
- inhibition of growth [9]: weaker
- inhibition of growth [10]: weaker
- fungicidal activity [11]: Only weak activity
- fungicidal activity [12]: most active
- phytotoxic activity [13]: no phytotoxic activity has been observed
- fungicidal effect on injured apples [14]: prevented the growth of fungus completely
- fungicidal effect (intensity of infection, FIG. 9) compared to both RONILAN® and BASULTRA® [15]: superior
- number of infected wounds (maximum 20) ([16]; 0.5 mg ai/l dip): 18
- number of infected wounds (maximum 20) ([16]; 5.0 mg ai/l dip): 14
- number of infected wounds (maximum 20) ([16]; 50 mg ai/l dip): 7
- number of infected wounds (maximum 20) ([16]; 500 mg ai/l dip): 1
- activity towards M. fructigena in comparison to the two commercial fungicides tested ([16]; versus BENLATE® and ROVRAL®): superior
